ChEMBL document CHEMBL3045927, “Synthesis of 4-methyl-1,2,3-thiadiazole derivatives via Ugi reaction and their biological activities” (2010)

Assays:
Assay type in all cases: functional
Alternaria solani = test: Fungicidal activity against Alternaria solani at 50 ug/ml by growth inhibition method; set-up: scale not given: the % may be the effect or the level left
Cercospora beticola = test: Fungicidal activity against Cercospora beticola at 50 ug/ml by growth inhibition method; set-up: scale not given: the % may be the effect or the level left
Colletotrichum lagenaria = test: Fungicidal activity against Colletotrichum lagenaria at 50 ug/ml by growth inhibition method; set-up: scale not given: the % may be the effect or the level left
Phytophthora infestans = test: Fungicidal activity against Phytophthora infestans at 50 ug/ml by growth inhibition method; set-up: scale not given: the % may be the effect or the level left
[1] = tested on: Botryosphaeria berengeriana; test: Fungicidal activity against Botryosphaeria berengeriana at 50 ug/ml by growth inhibition method; set-up: scale not given: the % may be the effect or the level left
Rhizoctonia solani = test: Fungicidal activity against Rhizoctonia solani at 50 ug/ml by growth inhibition method; set-up: scale not given: the % may be the effect or the level left
Pyricularia grisea = test: Fungicidal activity against Magnaporthe grisea at 50 ug/ml by growth inhibition method; set-up: scale not given: the % may be the effect or the level left
Thanatephorus cucumeris = test: Fungicidal activity against Thanatephorus cucumeris at 50 ug/ml by growth inhibition method; set-up: scale not given: the % may be the effect or the level left
Mycosphaerella arachidis = test: Fungicidal activity against Mycosphaerella arachidis at 50 ug/ml by growth inhibition method; set-up: scale not given: the % may be the effect or the level left
Tobacco mosaic virus [2] = test: In vitro antiviral activity against Tobacco mosaic virus (TMV) infected tobacco leaves at 100 ug/ml
Tobacco mosaic virus [3] = test: In vitro antiviral activity against Tobacco mosaic virus (TMV) infected tobacco leaves at 500 ug/ml
Fusarium oxysporum = test: Fungicidal activity against Fusarium oxysporum at 50 ug/ml by growth inhibition method; set-up: scale not given: the % may be the effect or the level left
Tobacco mosaic virus [4] = test: In vivo antiviral activity against Tobacco mosaic virus (TMV) infected tobacco leaves assessed as inactivation effect at 500 ug/ml co-treated with virus for 30 min before inoculation onto leaves measured at 2-3 days after viral challenge
Tobacco mosaic virus [5] = test: In vivo antiviral activity against Tobacco mosaic virus (TMV) infected tobacco leaves assessed as protective effect at 500 ug/ml treated 12 hr before viral inoculation measured at 2-3 days after viral challenge
Fusarium graminearum = test: Fungicidal activity against Fusarium graminearum at 50 ug/ml by growth inhibition method; set-up: scale not given: the % may be the effect or the level left
Nicotiana tabacum [6] = test: Induction of systemic acquired resistance activity in TMV infected-Nicotiana tabacum (tobacco) leaves at 100 ug/ml
Tobacco mosaic virus [7] = test: In vivo antiviral activity against Tobacco mosaic virus (TMV) infected tobacco leaves assessed as curative effect at 500 ug/ml treated after viral inoculation measured at 2-3 days after viral challenge
Tobacco mosaic virus [8] = test: In vivo antiviral activity against Tobacco mosaic virus (TMV) infected tobacco leaves assessed as protective effect at 100 ug/ml treated 12 hr before viral inoculation measured at 2-3 days after viral challenge
Nicotiana tabacum [9] = test: Induction of systemic acquired resistance activity in TMV infected-Nicotiana tabacum (tobacco) leaves at 50 ug/ml
Tobacco mosaic virus [10] = test: In vivo antiviral activity against Tobacco mosaic virus (TMV) infected tobacco leaves assessed as inactivation effect at 100 ug/ml co-treated with virus for 30 min before inoculation onto leaves measured at 2-3 days after viral challenge
Tobacco mosaic virus [11] = test: In vivo antiviral activity against Tobacco mosaic virus (TMV) infected tobacco leaves assessed as curative effect at 100 ug/ml treated after viral inoculation measured at 2-3 days after viral challenge

| Compound | Activity (Alternaria solani) [%] | Activity (Cercospora beticola) [%] | Activity (Colletotrichum lagenaria) [%] | Activity (Phytophthora infestans) [%] | Activity [1] [%] | Activity (Rhizoctonia solani) [%] | Activity (Pyricularia grisea) [%] | Activity (Thanatephorus cucumeris) [%] | Activity (Mycosphaerella arachidis) [%] | inhibition at 100 µg/mL (Tobacco mosaic virus [2]) [%] | inhibition at 500 µg/mL (Tobacco mosaic virus [3]) [%] | Activity (Fusarium oxysporum) [%] | Activity (Tobacco mosaic virus [4]) [%] | Activity (Tobacco mosaic virus [5]) [%] | Activity (Nicotiana tabacum [6]) [%] | Activity (Tobacco mosaic virus [7]) [%] | Activity (Tobacco mosaic virus [8]) [%] | Activity (Nicotiana tabacum [9]) [%] | Activity (Tobacco mosaic virus [10]) [%] | Activity (Tobacco mosaic virus [11]) [%] | other results |
| --- | --- | --- | --- | --- | --- | --- | --- | --- | --- | --- | --- | --- | --- | --- | --- | --- | --- | --- | --- | --- | --- |
| Cc1ccc(N(C(=O)c2snnc2C)C(C(=O)NC2CCCCC2)c2ccccc2[N+](=O)[O-])cc1Cl (centres undefined) | 35 | 11 | 32 | 0 | 41 | 29 | 24 | 22 | 16 | 15 | 47 | 22 | – | – | – | – | – | – | – | – | – |
| Cc1ccc(N(C(=O)c2snnc2C)C(C(=O)NC2CCCCC2)c2cccc([N+](=O)[O-])c2)cc1F (centres undefined) | 0 | 33 | 10 | 11 | 32 | 30 | 14 | 45 | 57 | 44 | 58 | – | 62 | 55 | 68 | 56 | 27 | 50 | 48 | 39 | Activity (Fusarium graminearum): 28% |
| Cc1ccc(N(C(=O)c2snnc2C)C(C(=O)NC2CCCCC2)c2ccc([N+](=O)[O-])cc2)cc1F (centres undefined) | 0 | 17 | 0 | 16 | 0 | 40 | 0 | 0 | 14 | 26 | 39 | – | 57 | 38 | 68 | 59 | 18 | 36 | 48 | 36 | Activity (Fusarium graminearum): 34% |
| Cc1ccc(N(C(=O)c2snnc2C)C(C(=O)NC2CCCCC2)c2ccccc2C)cc1F (centres undefined) | 44 | 67 | 43 | 47 | 53 | 51 | 57 | 16 | 79 | 23 | 52 | – | 60 | 35 | 58 | 47 | 23 | 63 | 27 | 18 | Activity (Fusarium graminearum): 34% |
| Cc1ccc(N(C(=O)c2snnc2C)C(C(=O)NC2CCCCC2)c2ccc(O)cc2)cc1F (centres undefined) | 0 | 17 | 5 | 0 | 0 | 40 | 14 | 14 | 36 | 20 | 70 | – | 68 | 55 | 65 | 43 | 40 | 44 | 65 | 34 | Activity (Fusarium graminearum): 24% |
| Cc1ccc(N(C(=O)c2snnc2C)C(C(=O)NC2CCCCC2)c2cccc(F)c2)cc1Cl (centres undefined) | 21 | 27 | 9 | 21 | 22 | 69 | 15 | 17 | 39 | 9 | 18 | 21 | – | – | – | – | – | – | – | – | – |
| Cc1ccc(N(C(=O)c2snnc2C)C(C(=O)NC2CCCCC2)c2ccc(F)cc2)cc1Cl (centres undefined) | 37 | 27 | 5 | 35 | 26 | 67 | 25 | 12 | 26 | 15 | 16 | 0 | – | – | – | – | – | – | – | – | – |
| Cc1ccc(N(C(=O)c2snnc2C)C(C(=O)NC2CCCCC2)c2cccc(C(F)(F)F)c2)cc1Cl (centres undefined) | 32 | 22 | 20 | 20 | 31 | 20 | 24 | 30 | 21 | 22 | 19 | 31 | – | – | – | – | – | – | – | – | – |
| Cc1ccc(N(C(=O)c2snnc2C)C(C(=O)NC2CCCCC2)c2ccccc2)cc1F (centres undefined) | 0 | 33 | 14 | 5 | 0 | 28 | 14 | 0 | 21 | 19 | 19 | – | 29 | 49 | 54 | 81 | 41 | 69 | 11 | 47 | Activity (Fusarium graminearum): 45% |
| Cc1ccc(N(C(=O)c2snnc2C)C(C(=O)NC2CCCCC2)c2ccccc2)cc1Cl (centres undefined) | 32 | 36 | 9 | 32 | 22 | 63 | 40 | 17 | 61 | 19 | 24 | 25 | – | – | – | – | – | – | – | – | – |
| Cc1ccc(N(C(=O)c2snnc2C)C(C(=O)NC2CCCCC2)c2ccccc2Cl)cc1Cl (centres undefined) | 26 | 27 | 5 | 26 | 13 | 67 | 40 | 12 | 48 | 19 | 20 | 0 | – | – | – | – | – | – | – | – | – |
| Cc1ccc(N(C(=O)c2snnc2C)C(C(=O)NC2CCCCC2)c2cccc(Cl)c2)cc1Cl (centres undefined) | 21 | 18 | 9 | 21 | 26 | 65 | 20 | 12 | 39 | 21 | 29 | 11 | – | – | – | – | – | – | – | – | – |
| NC(=O)c1ncn([C@@H]2O[C@H](CO)[C@@H](O)[C@H]2O)n1 [RIBAVIRIN] | – | – | – | – | – | – | – | – | – | 28 | 38 | – | 71 | 44 | 10 | 46 | 40 | 40 | 57 | 14 | – |
| Cc1ccc(NC(=O)c2snnc2C)cc1Cl [TIADINIL] | – | – | – | – | – | – | – | – | – | 37 | 51 | – | 70 | 48 | 49 | 44 | 35 | 47 | 70 | 12 | – |
